Patent US4812473A, “1,5-Disubstituted imidazoles as inhibitors of juvenile hormone” (Earth Chemical Co., Ltd., priority 1986, dated 1989)

Tests used:
anti-JH activity = test: Inhibition of the anti-JH activity of the compound of Example 1 by methoprene, a JH-active substance; conditions: in vivo
Protocol: Investigation was conducted to determine whether the activity of the foregoing compound of the invention can be inhibited by methoprene which is a JH-active substance. […] [Anti-JH Activity Test II]

[1] = test system: household silkworms (Bombyx mori) larvae; test: Anti-JH Activity Test I: activity to induce premature metamorphosis; format: in vivo
Protocol: (§1) The compound (test preparation) of the present invention diluted with acetone to the predetermined concentration was applied dropwise, in an amount of 1 to 4 μper larva, to the abdomen and the back of third- or fourth-instar larvae (those living for 0 to 8 hours after ecdysis) of household silkworms (Bombyx mori) raised in a room and fed on mulberry leaves. Immediately after treatment, the larvae were placed into a plastics case and reared by being fed on mulberry leaves until they started spinning cocoons. The anti-JH activity was evaluated in terms of the percentage (%) of presence of larvae (premature larvae) which began to spin cocoons at the 4th-instar stage without undergoing the 5th-instar moult. The test larvae treated with each test preparation in each group numbered 20. The test larvae in the control group treated with acetone in lieu of the test compound all commenced cocooning after the 5th-instar moult.

[2] = test system: 4th-instar household silkworm larvae; test: Anti-JH Activity Test II: anti-JH activity value (ED50); format: in vivo, Bombyx mori; conditions: 4th-instar larvae, dropwise application
Protocol: as §1
After the test compound diluted to the predetermined concentration was applied dropwise to 4th-instar household silkworm larvae in the same manner as in Anti-JH Activity Test I as described above, the larvae thus treated were reared until they started cocooning. The number of larvae which began to cocoon at the 4th-instar stage without undergoing the 5th-instar moult were counted to determine the percentage (%) of presence of larvae (premature larvae). Then the concentration of test preparation which induced 50% presence was determined and indicated as an anti-JH activity value (ED50).

COC(C)(C)CCC[C@H](C)C/C=C/C(C)=C/C(=O)OC(C)C (racemic) [methoprene]
inhibition by methoprene of the activity of the compound of the invention (Example 1) (anti-JH activity): completely inhibited

CC(C)CCCC(C)Cc1cncn1Cc1ccccc1 (stereo not drawn) [Example 1, 1-benzyl-5-(2,6-dimethylheptyl)imidazole]
Activity to induce premature metamorphosis ([1]; 3rd-instar larvae, dosage 0.5 μg/larva): 10% | Activity to induce premature metamorphosis ([1]; 3rd-instar larvae, dosage 1 μg/larva): 70% | Activity to induce premature metamorphosis ([1]; 3rd-instar larvae, dosage 2 μg/larva): 100% | Activity to induce premature metamorphosis ([1]; 4th-instar larvae, dosage 1 μg/larva): 20% | Activity to induce premature metamorphosis ([1]; 4th-instar larvae, dosage 2 μg/larva): 100% | Activity to induce premature metamorphosis ([1]; 4th-instar larvae, dosage 10 μg/larva): 100% | anti-JH activity (in words) ([1]; conclusion from Table 1): had an anti-JH activity | ED50 (anti-JH activity value, 50% presence of premature larvae) [2]: 1.4 μg/larva

CC(C)=CCC/C(C)=C/c1cncn1C [Example 2, 1-methyl-5-[(E)-2,6-dimethyl-1,5heptadienyl]-imidazole]
ED50 (anti-JH activity value, 50% presence of premature larvae) [2]: 17.5 μg/larva

CCn1cncc1/C=C(\C)CCC=C(C)C [Example 3, 1-ethyl-5-[(E)-2,6-dimethyl-1,5-heptadienyl]imidazole]
ED50 (anti-JH activity value, 50% presence of premature larvae) [2]: 5.8 μg/larva

CCCn1cncc1/C=C(\C)CCC=C(C)C [Example 4, 1-propyl-5-[(E)-2,6-dimethyl-1,5-heptadienyl]imidazole]
ED50 (anti-JH activity value, 50% presence of premature larvae) [2]: 3.5 μg/larva

CCCCn1cncc1/C=C(\C)CCC=C(C)C [Example 5, 1-butyl-5-[(E)-2,6-dimethyl-1,5-heptadienyl]imidazole]
ED50 (anti-JH activity value, 50% presence of premature larvae) [2]: 3.1 μg/larva

CCCCCn1cncc1/C=C(\C)CCC=C(C)C [Example 6, 1-amyl-5-[(E)-2,6-dimethyl-1,5-heptadienyl]imidazole]
ED50 (anti-JH activity value, 50% presence of premature larvae) [2]: 2.4 μg/larva

CCCCCCn1cncc1/C=C(\C)CCC=C(C)C [Example 7, 1-hexyl-5-[(E)-2,6-dimethyl-1,5-heptadienyl]imidazole]
ED50 (anti-JH activity value, 50% presence of premature larvae) [2]: 4.2 μg/larva

CC(C)=CCC/C(C)=C/c1cncn1C(C)C [Example 8, 1-isopropyl-5-[(E)-2,6-dimethyl-1,5-heptadienyl]imidazole]
ED50 (anti-JH activity value, 50% presence of premature larvae) [2]: 6.4 μg/larva

CC(C)=CCC/C(C)=C/c1cncn1CC(C)C [Example 9, 1-isobutyl-5-[(E)-2,6-dimethyl-1,5-heptadienyl]imidazole]
ED50 (anti-JH activity value, 50% presence of premature larvae) [2]: 1.8 μg/larva

CCC(C)n1cncc1/C=C(\C)CCC=C(C)C (stereo not drawn) [Example 10, 1-sec-butyl-5-[(E)-2,6-dimethyl-1,5-heptadienyl]imidazole]
ED50 (anti-JH activity value, 50% presence of premature larvae) [2]: 1.9 μg/larva

CC(C)=CCC/C(C)=C/c1cncn1CCC(C)C [Example 11, 1-isoamyl-5-[(E)-2,6-dimethyl-1,5-heptadienyl]imidazole]
ED50 (anti-JH activity value, 50% presence of premature larvae) [2]: 3.5 μg/larva

CC(C)=CCC/C(C)=C/c1cncn1C1CCCC1 [Example 12, 1-cyclopentyl-5-[(E)-2,6-dimethyl-1,5-heptadienyl]imidazole]
ED50 (anti-JH activity value, 50% presence of premature larvae) [2]: 3.6 μg/larva

CC(C)=CCC/C(C)=C/c1cncn1C1CCCCC1 [Example 13, 1-cyclohexyl-5-[(E)-2,6-dimethyl-1,5-heptadienyl]imidazole]
ED50 (anti-JH activity value, 50% presence of premature larvae) [2]: 6.6 μg/larva
